Measured values: US9273003B2, “Methods of treating lymphoma and rheumatoid arthritis with cyclopentyl (2S)-cyclohexyl[({6-[3-(hydroxyamino)-3-oxopropyl]pyridin-3-yl}methyl)amino]acetate” (GlaxoSmithKline Intellectual Property Development Limited, priority 2006, dated 2016)

Experiments:
[1] = tested on: intracellular carboxylesterases (U937 cell extract); experiment: Broken cell carboxylesterase assay, U937 cell extract; type: in vitro ADME; conditions: ester 2.5 μM, 37° C.
Protocol: Any given compound of the present invention wherein R1 is an ester group may be tested to determine whether it meets the requirement that it be hydrolysed by intracellular esterases, by testing in the following assay.
U937 or Hut78 tumour cells (˜10^9) were washed in 4 volumes of Dulbeccos PBS (˜1 liter) and pelleted at 525 g for 10 min at 4° C. This was repeated twice and the final cell pellet was resuspended in 35 mL of cold homogenising buffer (Trizma 10 mM, NaCl 130 mM, CaCl2 0.5 mM pH 7.0 at 25° C.). Homogenates were prepared by nitrogen cavitation (700 psi for 50 min at 4° C.). The homogenate was kept on ice and supplemented with a cocktail of inhibitors at final concentrations of: • Leupeptin 1 μM • Aprotinin 0.1 μM • E64 8 μM • Pepstatin 1.5 μM • Bestatin 162 μM • Chymostatin 33 μM After clarification of the cell homogenate by centrifugation at 525 g for 10 min, the resulting supernatant was used as a source of esterase activity and was stored at −80° C. until required. Measurement of Ester Cleavage
Hydrolysis of esters to the corresponding carboxylic acids can be measured using the cell extract, prepared as above. To this effect cell extract (˜30 μg/total assay volume of 0.5 ml) was incubated at 37° C. in a Tris-HCl 25 mM, 125 mM NaCl buffer, pH 7.5 at 25° C. At zero time the ester (substrate) was then added at a final concentration of 2.5 μM and the samples were incubated at 37° C. for the appropriate time (usually 0 or 80 min). Reactions were stopped by the addition of 3× volumes of acetonitrile. For zero time samples the acetonitrile was added prior to the ester compound. After centrifugation at 12000 g for 5 min, samples were analysed for the ester and its corresponding carboxylic acid at room temperature by LCMS (Sciex API 3000, HP1100 binary pump, CTC PAL). Chromatography was based on an AceCN (75×2.1 mm) column and a mobile phase of 5-95% acetonitrile in water/0.1% formic acid.
Rates of hydrolysis are expressed in pg/mL/min.

[2] = target: histone deacetylase activity (HeLa nuclear extract); experiment: HDAC fluorescent activity assay (Fluor de Lys, Biomol); type: biochemical; conditions: IC50 allocated to ranges, read-out: HDAC activity
Summary of the method: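 HeLa nuclear extract as HDAC source incubated with acetyl-lysine Fluor de Lys substrate ± inhibitor; developer then releases fluorophore from deacetylated substrate. Activity as % of vehicle control after no-enzyme background subtraction; IC50 from eight-point variable-slope sigmoidal fit.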

HeLa cells = experiment: HeLa cell inhibition assay (sulphorhodamine B cell viability); type: cell-based; conditions: Homo sapiens, IC50 allocated to ranges
HUT78 cells = experiment: HUT cell inhibition assay (WST-1 cell viability); type: cell-based; conditions: Homo sapiens; HUT78 cells; IC50 allocated to ranges; read-out: HUT activity
Summary of the method: (§1)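 Log-phase cells seeded at 1000-2000/well, grown 24 h, then exposed to compound for 72-96 h before WST-1 viability readout. Eight concentrations (top 10 μM final, 3-fold steps), 6 replicates; % inhibition versus DMSO, IC50 by sigmoidal variable-slope fit.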

U937 cells = experiment: U937 cell inhibition assay (WST-1 cell viability); type: cell-based; conditions: Homo sapiens, U-937; U937 cells; IC50 allocated to ranges; read-out: U937 activity
Summary of the method: as §1

Hydrolysis Rate Range U937 Cells [1] [pg/mL/min] | SMILES | IC50 [2] [nM] | IC50 (HeLa cells) [nM] | IC50 (HUT78 cells) [nM] | IC50 (U937 cells) [nM]
1000 to 50000 | Cc1ccc(NCc2cnc3nc(N)nc(N)c3c2C)cc1 [drawing 94] |  |  |  | 
1000 to 50000 | Cc1ccc(NCc2cnc3nc(N)nc(N)c3c2C)cc1 [drawing 92] |  |  |  | 
>50000 | Cc1ccc(NCc2cnc3nc(N)nc(N)c3c2C)cc1 [drawing 96] |  |  |  | 
>50000 | Cc1ccc2cc(C(=O)NO)sc2c1 [drawing 101] |  |  |  | 
100 to 1000 | COc1cc2c(Oc3ccc(NC(=O)c4ccccc4)cc3)ccnc2cc1C |  |  |  | 
>50000 | Cc1ccc2cc(C(=O)NO)sc2c1 [drawing 98] |  |  |  | 
>50000 | Cc1ccc(NCc2cnc3nc(N)nc(N)c3c2C)cc1 [drawing 90] |  |  |  | 
1000 to 50000 | Cc1ccc2cc(C(=O)NO)sc2c1 [drawing 84] |  |  |  | 
>50000 | Cc1ccc2cc(C(=O)NO)sc2c1 [drawing 87] |  |  |  | 
 | CC(C)C[C@H](NCc1ccc(CCC(=O)NO)cc1)C(=O)OC1Cc2ccccc2C1 [Example 37, 2,3-Dihydro-1H-inden-2-yl N-{4-[3-(hydroxyamino)-3-oxopropyl]benzyl}-L-leucinate] | 101 to 1000 | 331 to 3300 | < 330 | < 330
 | CC(C)(C)OC[C@H](NCCCOc1ccc(/C=C/C(=O)NO)cc1)C(=O)OC1CCCC1 [Example 10, Cyclopentyl O-tert-butyl-N-(3-{4-[(1E)-3-(hydroxyamino)-3-oxoprop-1-en-1-yl]phenoxy}propyl)-L-serinate] | 101 to 1000 | 331 to 3300 | 331 to 3300 | 331 to 3300
 | O=C(/C=C/c1cccc(CNCC2CCC(CN[C@H](C(=O)OC3CCCC3)C3CCCCC3)CC2)c1)NO (stereo partly drawn) [Example 79, Cyclopentyl (2S)-cyclohexyl[({4-[({3-[(1E)-3-(hydroxyamino)-3-oxoprop-1-en-1-yl]benzyl}amino)methyl]cyclohexyl}methyl)amino]acetate] | > 1000 | 331 to 3300 | 331 to 3300 | 331 to 3300
 | O=C(/C=C/c1ccc(C(=O)N[C@H](C(=O)OC2CCCC2)C2CCCCC2)cc1)NO [Example 7, Cyclopentyl (2S)-cyclohexyl({4-[(1E)-3-(hydroxyamino)-3-oxoprop-1-en-1-yl]benzoyl}amino)acetate] | 101 to 1000 | > 3300 | 331 to 3300 | 331 to 3300
 | O=C(/C=C/c1cccc(C(=O)N[C@H](C(=O)OC2CCCC2)c2ccccc2)c1)NO [Example 6, Cyclopentyl (2S)-({3-[(1E)-3-(hydroxyamino)-3-oxoprop-1-en-1-yl]benzoyl}amino)(phenyl)acetate] | 101 to 1000 | > 3300 | 331 to 3300 | 331 to 3300
